In the OPERA property sets (Mansouri et al. 2018):

Conditions: 25.0 °C

Structure (SMILES)	log10 OH rate constant (cm³/molecule/s)
Clc1ccc(-c2ccccc2)c(Cl)c1	-11.6
Clc1ccc(-c2ccc(Cl)cc2Cl)c(Cl)c1	-12
Clc1ccc(Cl)c(-c2cccc(Cl)c2Cl)c1	-12.1
Clc1ccc(-c2ccc(Cl)cc2Cl)cc1	-12
Clc1ccc(-c2ccccc2Cl)cc1Cl	-12
Clc1cc(Cl)c(-c2ccccc2)cc1Cl	-11.9
Clc1c(Cl)c(Cl)c(-c2ccccc2)c(Cl)c1Cl	-12
Clc1ccc(-c2c(Cl)ccc(Cl)c2Cl)cc1Cl	-12.2
Clc1ccc(Cl)c(-c2c(Cl)ccc(Cl)c2Cl)c1	-12.4
Clc1ccc(-c2cc(Cl)ccc2Cl)cc1	-11.9
